Our source for the IC50 values is patent US20140163026A1, “8-ETHYL-6-(ARYL)PYRIDO[2,3-D]PYRIMIDIN-7(8H)-ONES FOR THE TREATMENT OF NERVOUS SYSTEM DISORDERS AND CANCER” (Afraxis Holdings, Inc., priority 2011, published 2014).

Some results are limits rather than exact numbers.

As a reminder, the IC50 is the concentration that gives 50% inhibition.

Common to all, as to assay type: biochemical
The target of assay [1] is PAK1 (Homo sapiens, UniProt Q13153). In words: In vitro PAK inhibition assay (SelectScreen, Ser/Thr 19 peptide). Put shortly:
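Ten-point, 3-fold compound series at 1% final DMSO were incubated with enzyme, Ser/Thr 19 peptide and ATP for 60 min at room temperature. Buffer was HEPES pH 7.5 (50 mM) with 10 mM MgCl2, 1 mM EGTA, 0.01% BRIJ-35. A 60 min development step preceded the fluorescence read converted to % phosphorylation.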

Assay [2] addresses PAK2 (PAK65) (Homo sapiens, UniProt Q13177). In words: In vitro PAK inhibition assay (SelectScreen, Ser/Thr 20 peptide). Put shortly:
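Ten-point threefold compound dilutions (1% DMSO) were incubated with PAK2 (0.29-6 ng) and Ser/Thr 20 substrate (2 μM) for 60 min at room temperature in HEPES pH 7.5 buffer with MgCl2, EGTA and BRIJ-35.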

For assay [3], the target named is PAK3 (Homo sapiens, UniProt O75914). The assay is described as above. Put shortly: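 Fluorescence-based development format: after a 60-min room-temperature kinase reaction and 60-min protease development, percent phosphorylation of Ser/Thr 20 peptide calculated via phosphopeptide controls. Buffer 50 mM HEPES pH 7.5, 10 mM MgCl2, 1 mM EGTA, 0.01% BRIJ-35; compounds at 1% DMSO, 10-point 3-fold dilution series.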

For assay [4], the target named is PAK4 (Homo sapiens, UniProt O96013). Described as above. Put shortly: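 Ten-point, 3-fold compound series (1% DMSO) incubated 1 h at room temperature with PAK4 (0.1-0.75 ng) and 2 μM Ser/Thr 20 peptide, HEPES pH 7.5 buffer with MgCl2, EGTA, BRIJ-35. Development reagent cleaves non-phosphorylated peptide; fluorescence emission ratio gives % phosphorylation, fitted sigmoidally for IC50.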
PAK4, sequence (O96013 whole entry): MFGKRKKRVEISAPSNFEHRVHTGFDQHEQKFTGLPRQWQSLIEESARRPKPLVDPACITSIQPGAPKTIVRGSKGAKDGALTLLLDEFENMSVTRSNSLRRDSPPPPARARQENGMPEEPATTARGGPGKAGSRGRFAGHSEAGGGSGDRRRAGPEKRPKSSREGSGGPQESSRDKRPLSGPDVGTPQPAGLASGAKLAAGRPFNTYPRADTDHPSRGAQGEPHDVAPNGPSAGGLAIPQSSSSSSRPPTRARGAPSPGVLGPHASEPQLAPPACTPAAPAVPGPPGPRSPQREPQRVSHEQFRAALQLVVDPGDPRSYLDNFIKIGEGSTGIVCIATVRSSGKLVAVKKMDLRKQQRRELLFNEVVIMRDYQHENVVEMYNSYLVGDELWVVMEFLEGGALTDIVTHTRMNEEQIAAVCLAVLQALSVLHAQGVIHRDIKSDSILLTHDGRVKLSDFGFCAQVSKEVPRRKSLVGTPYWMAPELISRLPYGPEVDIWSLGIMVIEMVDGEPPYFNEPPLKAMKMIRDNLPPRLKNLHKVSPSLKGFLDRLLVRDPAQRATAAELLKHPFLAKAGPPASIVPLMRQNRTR

PAK2 (PAK65), sequence (Q13177 whole entry): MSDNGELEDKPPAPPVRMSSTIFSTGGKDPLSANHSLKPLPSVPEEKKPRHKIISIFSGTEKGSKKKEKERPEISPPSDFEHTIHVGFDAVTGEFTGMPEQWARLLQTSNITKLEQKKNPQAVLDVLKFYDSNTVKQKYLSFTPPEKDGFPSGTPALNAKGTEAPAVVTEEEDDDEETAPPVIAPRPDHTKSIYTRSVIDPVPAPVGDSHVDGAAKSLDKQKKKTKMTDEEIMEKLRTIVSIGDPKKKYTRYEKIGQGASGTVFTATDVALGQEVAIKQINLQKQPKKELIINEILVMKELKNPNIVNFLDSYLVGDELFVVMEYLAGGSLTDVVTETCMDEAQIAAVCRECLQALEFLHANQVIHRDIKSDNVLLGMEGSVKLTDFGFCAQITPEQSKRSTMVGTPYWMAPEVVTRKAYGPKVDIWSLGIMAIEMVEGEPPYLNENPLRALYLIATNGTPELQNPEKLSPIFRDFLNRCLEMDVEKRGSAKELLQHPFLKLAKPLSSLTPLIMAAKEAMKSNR
PAK3, sequence (O75914 whole entry): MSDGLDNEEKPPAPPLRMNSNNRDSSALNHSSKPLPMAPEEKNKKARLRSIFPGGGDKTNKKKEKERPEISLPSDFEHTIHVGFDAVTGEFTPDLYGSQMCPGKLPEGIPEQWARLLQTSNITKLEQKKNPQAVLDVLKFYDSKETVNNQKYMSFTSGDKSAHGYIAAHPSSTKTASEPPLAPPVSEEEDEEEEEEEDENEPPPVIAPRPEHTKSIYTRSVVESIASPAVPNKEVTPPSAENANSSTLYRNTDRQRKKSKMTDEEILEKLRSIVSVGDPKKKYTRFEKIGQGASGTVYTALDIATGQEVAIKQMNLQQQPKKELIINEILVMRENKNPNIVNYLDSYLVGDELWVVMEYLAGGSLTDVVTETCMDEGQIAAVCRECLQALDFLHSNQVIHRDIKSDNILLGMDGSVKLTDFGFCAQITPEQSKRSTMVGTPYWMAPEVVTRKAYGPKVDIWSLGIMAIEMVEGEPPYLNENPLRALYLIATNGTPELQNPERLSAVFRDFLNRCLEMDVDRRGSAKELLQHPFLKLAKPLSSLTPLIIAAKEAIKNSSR
PAK1, sequence (Q13153 whole entry): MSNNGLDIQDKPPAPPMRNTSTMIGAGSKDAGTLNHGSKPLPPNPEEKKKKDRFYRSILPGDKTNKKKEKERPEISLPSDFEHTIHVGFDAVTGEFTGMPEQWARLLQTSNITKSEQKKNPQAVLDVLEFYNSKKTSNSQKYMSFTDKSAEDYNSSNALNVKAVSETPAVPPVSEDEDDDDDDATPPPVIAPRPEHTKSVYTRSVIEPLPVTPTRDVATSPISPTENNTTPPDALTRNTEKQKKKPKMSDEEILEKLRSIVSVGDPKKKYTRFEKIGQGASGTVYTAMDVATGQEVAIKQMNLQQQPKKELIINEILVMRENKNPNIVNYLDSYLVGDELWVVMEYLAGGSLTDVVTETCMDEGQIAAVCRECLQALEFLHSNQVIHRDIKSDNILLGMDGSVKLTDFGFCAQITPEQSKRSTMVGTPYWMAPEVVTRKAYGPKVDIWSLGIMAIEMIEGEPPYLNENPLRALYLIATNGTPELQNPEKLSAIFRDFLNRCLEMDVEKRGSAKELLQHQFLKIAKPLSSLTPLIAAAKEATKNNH

As to `CCn1c(=O)c(-c2ccc(-c3noc(C)n3)cc2Cl)cc2cnc(Nc3ccc(CCN4CCCC4)cc3)nc21`, the IC50 in assay [1] is less than 0.05 µM; in assay [2], less than 0.05 µM; in assay [3] it was less than 0.05 µM; in assay [4], 0.5 to 5 µM.

Regarding `CCN1CCN(c2ccc(Nc3ncc4cc(-c5ccc(-c6cccnc6)cc5Cl)c(=O)n(CC)c4n3)cc2)CC1`, the IC50 in assay [1] was less than 0.05 µM; in assay [2], less than 0.05 µM; in assay [3] it was less than 0.05 µM; in assay [4] it was 0.5 to 5 µM.

Consider `CCN(CC)CCc1ccc(Nc2ncc3cc(-c4ccc(-c5noc(C)n5)cc4Cl)c(=O)n(CC)c3n2)cc1`, for which the IC50 in assay [1] was less than 0.05 µM; in assay [2] it was less than 0.05 µM; in assay [3], less than 0.05 µM; in assay [4], 0.5 to 5 µM.

As to `CCn1c(=O)c(-c2ccc(-c3ccnc(C(=O)NC)c3)cc2Cl)cc2cnc(Nc3ccc(C4CCN(C)CC4)cc3)nc21`, the half-inhibitory concentration (IC50) in assay [1] was less than 0.05 µM; in assay [2], 0.05 to 0.5 µM; in assay [3], 0.05 to 0.5 µM; in assay [4], not below 5 µM.

As to `CCn1c(=O)c(-c2ccc(-c3ccnc(C(=O)NC)c3)cc2Cl)cc2cnc(Nc3ccc(N4CCN(C)CC4)cc3)nc21`, the IC50 in assay [1] was less than 0.05 µM; in assay [2], less than 0.05 µM; in assay [3] it was 0.05 to 0.5 µM; in assay [4] it was not below 5 µM.

With `CCN1CCC(c2ccc(Nc3ncc4cc(-c5ccc(-c6ccc(C)nc6F)cc5Cl)c(=O)n(CC)c4n3)cc2F)CC1`, the IC50 was 0.05 to 0.5 µM in assay [1], 0.05 to 0.5 µM in assay [2], 0.05 to 0.5 µM in assay [3] and not below 5 µM in assay [4].

Regarding `CCn1c(=O)c(-c2ccc(-c3nnn[nH]3)cc2Cl)cc2cnc(Nc3ccc(N4CCN(C)CC4)cc3)nc21`, the IC50 in assay [1] was more than 5 µM; in assay [2], more than 5 µM; in assay [3] it was more than 5 µM; in assay [4], not below 5 µM.

Turning to `CCN1CCN(c2ccc(Nc3ncc4cc(-c5ccc(-c6cncs6)cc5Cl)c(=O)n(CC)c4n3)cc2F)CC1`, the IC50 in assay [1] is less than 0.05 µM; in assay [2], less than 0.05 µM; in assay [3], 0.05 to 0.5 µM; in assay [4] it was not below 5 µM.

As to `Cc1nc(-c2ccc(Cl)c(-c3cc4cnc(Nc5ccc(C6CCN(C)CC6)cc5)nc4n(C)c3=O)c2)no1`, the IC50 in assay [1] is 0.5 to 5 µM; in assay [2], 0.5 to 5 µM; in assay [3] it was 0.05 to 0.5 µM; in assay [4], not below 5 µM.

On to `CN1CCC(c2ccc(Nc3ncc4cc(-c5cc(-c6nccc(N(C)C)n6)ccc5Cl)c(=O)n(C)c4n3)cc2)CC1`, for which the IC50 in assay [1] is 0.5 to 5 µM; in assay [2], more than 5 µM; in assay [3] it was 0.05 to 0.5 µM; in assay [4], 0.5 to 5 µM.

In the case of `CCn1c(=O)c(-c2ccc(-c3cnn(C)c3)cc2)cc2cnc(Nc3ccc(N4CCN(C)CC4)cc3)nc21`, the IC50 was 0.05 to 0.5 µM in assay [1], 0.05 to 0.5 µM in assay [2], 0.5 to 5 µM in assay [3] and not below 5 µM in assay [4].

As for `CCN1CCC(c2ccc(Nc3ncc4cc(-c5ccc(-c6ccc(F)nc6C)cc5Cl)c(=O)n(CC)c4n3)cc2)CC1`, the IC50 is less than 0.05 µM in assay [1], 0.05 to 0.5 µM in assay [2], 0.05 to 0.5 µM in assay [3] and not below 5 µM in assay [4].

As for `CCn1c(=O)c(-c2ccc(-c3cccnc3F)cc2Cl)cc2cnc(Nc3ccc(C4=CCN(C)CC4)cc3)nc21`, the IC50 in assay [1] was less than 0.05 µM; in assay [2], less than 0.05 µM; in assay [3] it was less than 0.05 µM; in assay [4] it was 0.5 to 5 µM.

With `CCn1c(=O)c(-c2ccc(-c3ccc(C)nc3F)cc2Cl)cc2cnc(Nc3ccc(C4CCN(C)CC4)c(F)c3)nc21`, the concentration for half-maximal inhibition (IC50) in assay [1] lay in the range of 0.05 to 0.5 µM; in assay [2] it was 0.05 to 0.5 µM; in assay [3] it was 0.05 to 0.5 µM; in assay [4], 0.5 to 5 µM.

Turning to `CCn1c(=O)c(-c2ccc(-c3noc(C)n3)cc2Cl)cc2cnc(Nc3ccc(C4=CCN(C)CC4)cc3)nc21`, the IC50 in assay [1] is less than 0.05 µM; in assay [2], less than 0.05 µM; in assay [3] it was less than 0.05 µM; in assay [4], 0.5 to 5 µM.

As to `CCn1c(=O)c(-c2ccc(-c3cc(N(C)C)ncn3)cc2Cl)cc2cnc(Nc3ccc(C4CCN(C)CC4)cc3)nc21`, the IC50 was less than 0.05 µM in assay [1], 0.05 to 0.5 µM in assay [2], 0.05 to 0.5 µM in assay [3] and not below 5 µM in assay [4].

As for `CCn1c(=O)c(-c2ccc(-c3ccc(C(=O)NC)nc3)cc2Cl)cc2cnc(Nc3ccc(N4CCN(C)CC4)cc3)nc21`, the IC50 in assay [1] was more than 5 µM; in assay [2], 0.05 to 0.5 µM; in assay [3], more than 5 µM; in assay [4] it was not below 5 µM.

For `CCn1c(=O)c(-c2ccc(-c3cn[nH]c3)cc2)cc2cnc(Nc3ccc(N4CCN(C)CC4)cc3)nc21`, the half-maximal inhibitory concentration (IC50) was more than 5 µM in assay [1], 0.5 to 5 µM in assay [2], more than 5 µM in assay [3] and not below 5 µM in assay [4].

For the molecule `CCn1c(=O)c(-c2ccc(-c3noc(C)n3)cc2Cl)cc2cnc(Nc3ccc(C4CCNC4)c(F)c3)nc21` (centres unmarked), the IC50 in assay [1] was less than 0.05 µM; in assay [2], less than 0.05 µM; in assay [3], less than 0.05 µM; in assay [4], 0.5 to 5 µM.

As to `CCn1c(=O)c(-c2ccc(-c3cnc(C)s3)cc2Cl)cc2cnc(Nc3ccc(CCN4CCOCC4)cc3)nc21`, the half-inhibitory concentration (IC50) in assay [1] was 0.05 to 0.5 µM; in assay [2] it was 0.05 to 0.5 µM; in assay [3], 0.05 to 0.5 µM; in assay [4], not below 5 µM.

For `CCN1CCN(c2ccc(Nc3ncc4cc(-c5ccc(-c6scnc6C)cc5Cl)c(=O)n(CC)c4n3)cc2)CC1`, the IC50 in assay [1] is less than 0.05 µM; in assay [2] it was less than 0.05 µM; in assay [3] it was 0.05 to 0.5 µM; in assay [4] it was not below 5 µM.

For `CCN(CC)CCc1ccc(Nc2ncc3cc(-c4ccc(-c5cccnc5C)cc4Cl)c(=O)n(CC)c3n2)cc1`, the IC50 in assay [1] was less than 0.05 µM; in assay [2], less than 0.05 µM; in assay [3], 0.05 to 0.5 µM; in assay [4], not below 5 µM.

As for `CCn1c(=O)c(-c2ccc(C3CC3)cc2)cc2cnc(Nc3ccc(N4CCN(C)CC4)cc3)nc21`, the IC50 in assay [1] was 0.05 to 0.5 µM; in assay [2] it was 0.5 to 5 µM; in assay [3], 0.5 to 5 µM; in assay [4], not below 5 µM.

On to `CCn1c(=O)c(-c2ccc(-c3ccccn3)s2)cc2cnc(Nc3ccc(N4CCN(C)CC4)cc3)nc21`, for which the IC50 in assay [1] is more than 5 µM; in assay [2], more than 5 µM; in assay [3], more than 5 µM; in assay [4], not below 5 µM.

`CCN1CCC(c2ccc(Nc3ncc4cc(-c5ccc(-c6cnc(C)s6)cc5Cl)c(=O)n(CC)c4n3)cc2)CC1`: the IC50 is less than 0.05 µM in assay [1], less than 0.05 µM in assay [2], 0.05 to 0.5 µM in assay [3] and 0.5 to 5 µM in assay [4].

Take `CCn1c(=O)c(-c2ccc(-c3cncnc3)cc2Cl)cc2cnc(Nc3ccc(C4CN(C)CCO4)cc3)nc21` (centres unmarked): the IC50 in assay [1] is less than 0.05 µM; in assay [2], less than 0.05 µM; in assay [3] it was less than 0.05 µM; in assay [4], not below 5 µM.

Regarding `Cc1ncc(-c2ccc(-c3cc4cnc(Nc5ccc(CCN(C)C)cc5)nc4n(C)c3=O)c(Cl)c2)s1`, the 50% inhibitory concentration (IC50) in assay [1] is less than 0.05 µM; in assay [2], less than 0.05 µM; in assay [3], less than 0.05 µM; in assay [4], not below 5 µM.

Take `CCn1c(=O)c(-c2ccc(-c3cccnc3)cc2Cl)cc2cnc(Nc3ccc(N4CCNCC4)cc3)nc21`: the IC50 in assay [1] is less than 0.05 µM; in assay [2], less than 0.05 µM; in assay [3], less than 0.05 µM; in assay [4], 0.5 to 5 µM.

Take `CCn1c(=O)c(-c2ccc(-c3ccc(C)nc3)cc2Cl)cc2cnc(Nc3ccc(CCN(C)C)cc3)nc21`: the IC50 is less than 0.05 µM in assay [1], less than 0.05 µM in assay [2], 0.05 to 0.5 µM in assay [3] and 0.5 to 5 µM in assay [4].

Regarding `CCn1c(=O)c(-c2ccc(-c3scnc3C)cc2Cl)cc2cnc(Nc3ccc(N4CCN(C(C)C)CC4)cc3)nc21`, the IC50 in assay [1] was less than 0.05 µM; in assay [2] it was less than 0.05 µM; in assay [3], 0.05 to 0.5 µM; in assay [4], not below 5 µM.

As for `CCn1c(=O)c(-c2ccc(-c3cc(NC4CC4)ncn3)cc2Cl)cc2cnc(Nc3ccc(C4CCN(C)CC4)cc3)nc21`, the IC50 in assay [1] is 0.05 to 0.5 µM; in assay [2], 0.05 to 0.5 µM; in assay [3], 0.05 to 0.5 µM; in assay [4], not below 5 µM.

As to `CNC(=O)c1cc(-c2ccc(-c3cc4cnc(Nc5ccc(C6CCN(C)CC6)cc5)nc4n(C)c3=O)c(Cl)c2)ccn1`, the IC50 is 0.05 to 0.5 µM in assay [1], 0.05 to 0.5 µM in assay [2], 0.5 to 5 µM in assay [3] and not below 5 µM in assay [4].

`CCn1c(=O)c(-c2ccc(-c3cn[nH]c3)cc2Cl)cc2cnc(Nc3ccc(N4CCN(C)CC4)cc3)nc21`: the IC50 in assay [1] was 0.05 to 0.5 µM; in assay [2], 0.05 to 0.5 µM; in assay [3], 0.05 to 0.5 µM; in assay [4], not below 5 µM.

For `CCn1c(=O)c(-c2ccc(-c3cccc4ncccc34)cc2)cc2cnc(Nc3ccc(N4CCN(C)CC4)cc3)nc21`, the IC50 in assay [1] is more than 5 µM; in assay [2], more than 5 µM; in assay [3] it was more than 5 µM; in assay [4], not below 5 µM.

As to `CCn1c(=O)c(-c2ccc(-c3ncc(C)s3)cc2Cl)cc2cnc(Nc3ccc(N4CCN(C)CC4)cc3)nc21`, the IC50 in assay [1] was less than 0.05 µM; in assay [2] it was less than 0.05 µM; in assay [3] it was 0.05 to 0.5 µM; in assay [4], 0.5 to 5 µM.
